In the oligonucleotide strings, read from the 5' end, every base follows the letter of its sugar. An asterisk marks phosphorothioate; unmarked linkages are phosphodiester. Other units and linkages are bracketed, terminal groups are in braces. A string of capitals states the bases alone. e = 2'-O-(2-methoxyethyl) (MOE); [5mC] = 5-methylcytosine; d = 2'-deoxy (DNA)

In one series the test system is human Factor XI mRNA. The series is described as follows: Antisense inhibition in HepG2 cells by microwalk gapmers, 75 nM, lipofectin (Example 3). The class given is cell-based. The conditions noted are these: HepG2 cells, 75 nM, oligonucleotides targeted to nucleobases 1062 to 1091 of SEQ ID NO: 1. The gist of the method: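 HepG2 cells (10,000 per well) were transfected with 75 nM gapmer using lipofectin and treated for about 24 h. Factor XI mRNA was quantified by real-time PCR, normalized to RiboGreen total RNA and expressed as percent inhibition versus untreated controls.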
Consider “413476 (antisense eT*eT*eG*eA*eG*dA*dT*dT*d[5mC]*dT*dT*dT*dG*dG*dG*e[5mC]*e[5mC]*eA*eT*eT) [compound 413476]”, for which the “% inhibition of human Factor XI mRNA levels” value turned out to be 93%.

A further series has as its system human Factor XI mRNA. The series is described as follows: Dose-dependent antisense inhibition in HepG2 cells, lipofectin (Example 2). Format: cell-based. The conditions noted are these: 9.375 nM, approximately 16 hours. As to the method: Cells were plated at a density of 10,000 cells per well and transfected using lipofectin reagent with 9.375 nM, 18.75 nM, 37.5 nM, 75 nM, and 150 nM concentrations of antisense oligonucleotide, as specified in Table 3. After a treatment period of approximately 16 hours, RNA was isolated from the cells and Factor XI mRNA levels were measured by quantitative real-time PCR. Human Factor XI primer probe set RTS 2966 (forward sequence: […], incorporated herein as SEQ ID NO: 3; reverse sequence: […], incorporated herein as SEQ ID NO: 4; probe sequence: TTGTCTACTGAAGCACACCCAAACAGGGAX, wherein X is the fluorophore, incorporated herein as SEQ ID NO: 5) was used to measure mRNA levels. Factor XI mRNA levels were adjusted according to total RNA content, as measured by RIBOGREEN®. Results are presented as percent inhibition of Factor XI, relative to untreated control cells.
In the case of “413476 (antisense eT*eT*eG*eA*eG*dA*dT*dT*d[5mC]*dT*dT*dT*dG*dG*dG*e[5mC]*e[5mC]*eA*eT*eT) [compound 413476]”, the “percent inhibition of Factor XI” value stood at 26%.

As to “412203 (antisense eA*eA*eT*eG*eT*d[5mC]*dT*dT*dT*dG*dT*dT*dG*d[5mC]*dA*eA*eG*e[5mC]*eG*e[5mC]) [compound 412203]”, the “percent inhibition of Factor XI” value is 29%.

As to “413468 (antisense eG*eT*e[5mC]*eT*eA*dG*dG*dT*d[5mC]*d[5mC]*dA*d[5mC]*dA*dT*dA*eA*eA*eT*eG*eT) [compound 413468]”, the “percent inhibition of Factor XI” value came out at 14%.

The series is the same for the next values; noted with them: 18.75 nM, approximately 16 hours.
As for “413476 (antisense eT*eT*eG*eA*eG*dA*dT*dT*d[5mC]*dT*dT*dT*dG*dG*dG*e[5mC]*e[5mC]*eA*eT*eT) [compound 413476]”, the “percent inhibition of Factor XI” value is reported as 44%.

Turning to “412203 (antisense eA*eA*eT*eG*eT*d[5mC]*dT*dT*dT*dG*dT*dT*dG*d[5mC]*dA*eA*eG*e[5mC]*eG*e[5mC]) [compound 412203]”, the “percent inhibition of Factor XI” value was 15%.

As to “413468 (antisense eG*eT*e[5mC]*eT*eA*dG*dG*dT*d[5mC]*d[5mC]*dA*d[5mC]*dA*dT*dA*eA*eA*eT*eG*eT) [compound 413468]”, the “percent inhibition of Factor XI” value is on record as 34%.

The series is the same for the next values; noted with them: 37.5 nM, approximately 16 hours.
As to “413476 (antisense eT*eT*eG*eA*eG*dA*dT*dT*d[5mC]*dT*dT*dT*dG*dG*dG*e[5mC]*e[5mC]*eA*eT*eT) [compound 413476]”, the “percent inhibition of Factor XI” value was found to be 64%.

“412203 (antisense eA*eA*eT*eG*eT*d[5mC]*dT*dT*dT*dG*dT*dT*dG*d[5mC]*dA*eA*eG*e[5mC]*eG*e[5mC]) [compound 412203]”: the “percent inhibition of Factor XI” value worked out at 61%.

In the case of “413468 (antisense eG*eT*e[5mC]*eT*eA*dG*dG*dT*d[5mC]*d[5mC]*dA*d[5mC]*dA*dT*dA*eA*eA*eT*eG*eT) [compound 413468]”, the “percent inhibition of Factor XI” value is 56%.

The same series, now with this note: 75 nM, approximately 16 hours.
Consider “413476 (antisense eT*eT*eG*eA*eG*dA*dT*dT*d[5mC]*dT*dT*dT*dG*dG*dG*e[5mC]*e[5mC]*eA*eT*eT) [compound 413476]”, for which the “percent inhibition of Factor XI” value amounted to 73%.

As to “412203 (antisense eA*eA*eT*eG*eT*d[5mC]*dT*dT*dT*dG*dT*dT*dG*d[5mC]*dA*eA*eG*e[5mC]*eG*e[5mC]) [compound 412203]”, the “percent inhibition of Factor XI” value turned out to be 77%.

In the case of “413468 (antisense eG*eT*e[5mC]*eT*eA*dG*dG*dT*d[5mC]*d[5mC]*dA*d[5mC]*dA*dT*dA*eA*eA*eT*eG*eT) [compound 413468]”, the “percent inhibition of Factor XI” value is recorded as 78%.

The series is the same for the next values; noted with them: 150 nM, approximately 16 hours.
As for “413476 (antisense eT*eT*eG*eA*eG*dA*dT*dT*d[5mC]*dT*dT*dT*dG*dG*dG*e[5mC]*e[5mC]*eA*eT*eT) [compound 413476]”, the “percent inhibition of Factor XI” value is 82%.

On to “412203 (antisense eA*eA*eT*eG*eT*d[5mC]*dT*dT*dT*dG*dT*dT*dG*d[5mC]*dA*eA*eG*e[5mC]*eG*e[5mC]) [compound 412203]”, for which the “percent inhibition of Factor XI” value worked out at 82%.

“413468 (antisense eG*eT*e[5mC]*eT*eA*dG*dG*dT*d[5mC]*d[5mC]*dA*d[5mC]*dA*dT*dA*eA*eA*eT*eG*eT) [compound 413468]”: the “percent inhibition of Factor XI” value was found to be 75%.

Another series deals with human Factor XI mRNA. Briefly: Dose-dependent inhibition in HepG2 cells, electroporation (Example 4). Conditions: 0.7 μM, 16 hours. The class given is cell-based. The gist of the method: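 HepG2 cells electroporated with 0.7, 2.2, 6.7 or 20 μM antisense gapmer and harvested after ~16 h. Factor XI mRNA quantified by qRT-PCR (primer probe set RTS 2966), normalised to total RNA (RIBOGREEN). Reported as percent inhibition versus untreated control cells.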
For “413476 (antisense eT*eT*eG*eA*eG*dA*dT*dT*d[5mC]*dT*dT*dT*dG*dG*dG*e[5mC]*e[5mC]*eA*eT*eT) [compound 413476]”, the “percent inhibition of Factor XI mRNA, relative to untreated control cells” value is recorded as 40%.

“412203 (antisense eA*eA*eT*eG*eT*d[5mC]*dT*dT*dT*dG*dT*dT*dG*d[5mC]*dA*eA*eG*e[5mC]*eG*e[5mC]) [compound 412203]”: the “percent inhibition of Factor XI mRNA, relative to untreated control cells” value is on record as 11%.

The series is the same for the next values; noted with them: 2.2 μM, 16 hours.
In the case of “413476 (antisense eT*eT*eG*eA*eG*dA*dT*dT*d[5mC]*dT*dT*dT*dG*dG*dG*e[5mC]*e[5mC]*eA*eT*eT) [compound 413476]”, the “percent inhibition of Factor XI mRNA, relative to untreated control cells” value came out at 69%.

On to “412203 (antisense eA*eA*eT*eG*eT*d[5mC]*dT*dT*dT*dG*dT*dT*dG*d[5mC]*dA*eA*eG*e[5mC]*eG*e[5mC]) [compound 412203]”, for which the “percent inhibition of Factor XI mRNA, relative to untreated control cells” value was 60%.

The same series, now with this note: 6.7 μM, 16 hours.
In the case of “413476 (antisense eT*eT*eG*eA*eG*dA*dT*dT*d[5mC]*dT*dT*dT*dG*dG*dG*e[5mC]*e[5mC]*eA*eT*eT) [compound 413476]”, the “percent inhibition of Factor XI mRNA, relative to untreated control cells” value was determined as 88%.

Take “412203 (antisense eA*eA*eT*eG*eT*d[5mC]*dT*dT*dT*dG*dT*dT*dG*d[5mC]*dA*eA*eG*e[5mC]*eG*e[5mC]) [compound 412203]”: the “percent inhibition of Factor XI mRNA, relative to untreated control cells” value is on record as 70%.

Still in this series, the particulars now being: 20 μM, 16 hours.
Consider “413476 (antisense eT*eT*eG*eA*eG*dA*dT*dT*d[5mC]*dT*dT*dT*dG*dG*dG*e[5mC]*e[5mC]*eA*eT*eT) [compound 413476]”, for which the “percent inhibition of Factor XI mRNA, relative to untreated control cells” value was 93%.

Regarding “412203 (antisense eA*eA*eT*eG*eT*d[5mC]*dT*dT*dT*dG*dT*dT*dG*d[5mC]*dA*eA*eG*e[5mC]*eG*e[5mC]) [compound 412203]”, the “percent inhibition of Factor XI mRNA, relative to untreated control cells” value was 91%.

Another series deals with human Factor XI mRNA. The series is described as follows: Dose-dependent inhibition in HepG2 cells, lipofectin (Example 4). Conditions: 9.375 nM, 16 hours. Format: cell-based. The gist of the method:
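Read-out was percent inhibition of Factor XI mRNA relative to untreated controls, by qRT-PCR (RTS 2966) adjusted for RIBOGREEN-measured total RNA. Cells received antisense oligonucleotide at 9.375 to 75 nM (four levels) via lipofectin. Treatment lasted approximately 16 hours, with plating at 10,000 cells per well.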
Consider “413476 (antisense eT*eT*eG*eA*eG*dA*dT*dT*d[5mC]*dT*dT*dT*dG*dG*dG*e[5mC]*e[5mC]*eA*eT*eT) [compound 413476]”, for which the “percent inhibition of Factor XI mRNA, relative to untreated control cells” value is listed as 24%.

Regarding “412203 (antisense eA*eA*eT*eG*eT*d[5mC]*dT*dT*dT*dG*dT*dT*dG*d[5mC]*dA*eA*eG*e[5mC]*eG*e[5mC]) [compound 412203]”, the “percent inhibition of Factor XI mRNA, relative to untreated control cells” value is recorded as 33%.

The same series, now with this note: 18.75 nM, 16 hours.
For the substance “413476 (antisense eT*eT*eG*eA*eG*dA*dT*dT*d[5mC]*dT*dT*dT*dG*dG*dG*e[5mC]*e[5mC]*eA*eT*eT) [compound 413476]”, the “percent inhibition of Factor XI mRNA, relative to untreated control cells” value was 58%.

With “412203 (antisense eA*eA*eT*eG*eT*d[5mC]*dT*dT*dT*dG*dT*dT*dG*d[5mC]*dA*eA*eG*e[5mC]*eG*e[5mC]) [compound 412203]”, the “percent inhibition of Factor XI mRNA, relative to untreated control cells” value came out at 40%.

Still in this series, the particulars now being: 37.5 nM, 16 hours.
For the substance “413476 (antisense eT*eT*eG*eA*eG*dA*dT*dT*d[5mC]*dT*dT*dT*dG*dG*dG*e[5mC]*e[5mC]*eA*eT*eT) [compound 413476]”, the “percent inhibition of Factor XI mRNA, relative to untreated control cells” value was determined as 62%.

On to “412203 (antisense eA*eA*eT*eG*eT*d[5mC]*dT*dT*dT*dG*dT*dT*dG*d[5mC]*dA*eA*eG*e[5mC]*eG*e[5mC]) [compound 412203]”, for which the “percent inhibition of Factor XI mRNA, relative to untreated control cells” value was 62%.

The series is the same for the next values; noted with them: 75 nM, 16 hours.
With “413476 (antisense eT*eT*eG*eA*eG*dA*dT*dT*d[5mC]*dT*dT*dT*dG*dG*dG*e[5mC]*e[5mC]*eA*eT*eT) [compound 413476]”, the “percent inhibition of Factor XI mRNA, relative to untreated control cells” value was 77%.

For the substance “412203 (antisense eA*eA*eT*eG*eT*d[5mC]*dT*dT*dT*dG*dT*dT*dG*d[5mC]*dA*eA*eG*e[5mC]*eG*e[5mC]) [compound 412203]”, the “percent inhibition of Factor XI mRNA, relative to untreated control cells” value is given as 74%.

Source of the values: patent US20120083522A1, “MODULATION OF INFLAMMATORY RESPONSES BY FACTOR XI” (Isis Pharmaceuitcals, inc., priority 2009, published 2012).
